According to patent US20100168103A1, “DIARYL PIPERIDINE COMPOUNDS AS CALCIUM CHANNEL BLOCKERS” (NEUROMED PHARMACEUTICALS LTD., priority 2006, published 2010):
Like-named read-outs stand apart in the source and are kept apart here.

Target: T1, rat brain N-type calcium channel subunits (α1B+α2δ+β1b cDNA subunits) (Rattus norvegicus, UniProt Q02294)
T1 construct: expressed in transfected cells; host or cells: HEK 293
Assay: N-type calcium channel block, whole cell patch clamp in transfected HEK 293 cells
Type: cell-based
Settings: holding potential −80 mV to +10 mV
Procedure: N-type calcium channel blocking activity was assayed in human embryonic kidney cells, HEK 293, stably transfected with the rat brain N-type calcium channel subunits (α1B+α2δ+β1b cDNA subunits). Alternatively, N-type calcium channels (α1B+α2δ+β1b cDNA subunits), L-type channels (α1C+α2δ+β1b cDNA subunits) and P/Q-type channels (α1A+α2δ+β1b cDNA subunits) were transiently expressed in HEK 293 cells. Briefly, cells were cultured in Dulbecco's modified eagle medium (DMEM) supplemented with 10% fetal bovine serum, 200 U/ml penicillin and 0.2 mg/ml streptomycin at 37° C. with 5% CO2. At 85% confluency cells were split with 0.25% trypsin/1 mM EDTA and plated at 10% confluency on glass coverslips. At 12 hours the medium was replaced and the cells transiently transfected using a standard calcium phosphate protocol and the appropriate calcium channel cDNA's. Fresh DMEM was supplied and the cells transferred to 28° C./5% CO2. Cells were incubated for 1 to 2 days prior to whole cell recording.
Whole cell patch clamp experiments were performed using an Axopatch 200B amplifier (Axon Instruments, Burlingame, Calif.) linked to a personal computer equipped with pCLAMP software. The external and internal recording solutions contained, respectively, 5 mM BaCl2, 10 mM MgCl2, 10 mM HEPES, 40 mM TEACl, 10 mM glucose, 87.5 mM CsCl (pH 7.2) and 108 mM CsMS, 4 mM MgCl2, 9 mM EGTA, 9 mM HEPES (pH 7.2). Currents were typically elicited from a holding potential of −80 mV to +10 mV using Clampex software (Axon Instruments). Typically, currents were first elicited with low frequency stimulation (0.067 Hz) and allowed to stabilize prior to application of the compounds. The compounds were then applied during the low frequency pulse trains for two to three minutes to assess tonic block, and subsequently the pulse frequency was increased to 0.2 Hz to assess frequency dependent block. Data were analyzed using Clampfit (Axon Instruments) and SigmaPlot 4.0 (Jandel Scientific).

[1] = low frequency stimulation 0.067 Hz (tonic block), 5 mM BaCl2, read-out: IC50 @ 0.067 Hz
[2] = pulse frequency 0.2 Hz (frequency dependent block), 5 mM BaCl2, read-out: IC50 @ 0.2 Hz

T1 sequence (Q02294 whole entry): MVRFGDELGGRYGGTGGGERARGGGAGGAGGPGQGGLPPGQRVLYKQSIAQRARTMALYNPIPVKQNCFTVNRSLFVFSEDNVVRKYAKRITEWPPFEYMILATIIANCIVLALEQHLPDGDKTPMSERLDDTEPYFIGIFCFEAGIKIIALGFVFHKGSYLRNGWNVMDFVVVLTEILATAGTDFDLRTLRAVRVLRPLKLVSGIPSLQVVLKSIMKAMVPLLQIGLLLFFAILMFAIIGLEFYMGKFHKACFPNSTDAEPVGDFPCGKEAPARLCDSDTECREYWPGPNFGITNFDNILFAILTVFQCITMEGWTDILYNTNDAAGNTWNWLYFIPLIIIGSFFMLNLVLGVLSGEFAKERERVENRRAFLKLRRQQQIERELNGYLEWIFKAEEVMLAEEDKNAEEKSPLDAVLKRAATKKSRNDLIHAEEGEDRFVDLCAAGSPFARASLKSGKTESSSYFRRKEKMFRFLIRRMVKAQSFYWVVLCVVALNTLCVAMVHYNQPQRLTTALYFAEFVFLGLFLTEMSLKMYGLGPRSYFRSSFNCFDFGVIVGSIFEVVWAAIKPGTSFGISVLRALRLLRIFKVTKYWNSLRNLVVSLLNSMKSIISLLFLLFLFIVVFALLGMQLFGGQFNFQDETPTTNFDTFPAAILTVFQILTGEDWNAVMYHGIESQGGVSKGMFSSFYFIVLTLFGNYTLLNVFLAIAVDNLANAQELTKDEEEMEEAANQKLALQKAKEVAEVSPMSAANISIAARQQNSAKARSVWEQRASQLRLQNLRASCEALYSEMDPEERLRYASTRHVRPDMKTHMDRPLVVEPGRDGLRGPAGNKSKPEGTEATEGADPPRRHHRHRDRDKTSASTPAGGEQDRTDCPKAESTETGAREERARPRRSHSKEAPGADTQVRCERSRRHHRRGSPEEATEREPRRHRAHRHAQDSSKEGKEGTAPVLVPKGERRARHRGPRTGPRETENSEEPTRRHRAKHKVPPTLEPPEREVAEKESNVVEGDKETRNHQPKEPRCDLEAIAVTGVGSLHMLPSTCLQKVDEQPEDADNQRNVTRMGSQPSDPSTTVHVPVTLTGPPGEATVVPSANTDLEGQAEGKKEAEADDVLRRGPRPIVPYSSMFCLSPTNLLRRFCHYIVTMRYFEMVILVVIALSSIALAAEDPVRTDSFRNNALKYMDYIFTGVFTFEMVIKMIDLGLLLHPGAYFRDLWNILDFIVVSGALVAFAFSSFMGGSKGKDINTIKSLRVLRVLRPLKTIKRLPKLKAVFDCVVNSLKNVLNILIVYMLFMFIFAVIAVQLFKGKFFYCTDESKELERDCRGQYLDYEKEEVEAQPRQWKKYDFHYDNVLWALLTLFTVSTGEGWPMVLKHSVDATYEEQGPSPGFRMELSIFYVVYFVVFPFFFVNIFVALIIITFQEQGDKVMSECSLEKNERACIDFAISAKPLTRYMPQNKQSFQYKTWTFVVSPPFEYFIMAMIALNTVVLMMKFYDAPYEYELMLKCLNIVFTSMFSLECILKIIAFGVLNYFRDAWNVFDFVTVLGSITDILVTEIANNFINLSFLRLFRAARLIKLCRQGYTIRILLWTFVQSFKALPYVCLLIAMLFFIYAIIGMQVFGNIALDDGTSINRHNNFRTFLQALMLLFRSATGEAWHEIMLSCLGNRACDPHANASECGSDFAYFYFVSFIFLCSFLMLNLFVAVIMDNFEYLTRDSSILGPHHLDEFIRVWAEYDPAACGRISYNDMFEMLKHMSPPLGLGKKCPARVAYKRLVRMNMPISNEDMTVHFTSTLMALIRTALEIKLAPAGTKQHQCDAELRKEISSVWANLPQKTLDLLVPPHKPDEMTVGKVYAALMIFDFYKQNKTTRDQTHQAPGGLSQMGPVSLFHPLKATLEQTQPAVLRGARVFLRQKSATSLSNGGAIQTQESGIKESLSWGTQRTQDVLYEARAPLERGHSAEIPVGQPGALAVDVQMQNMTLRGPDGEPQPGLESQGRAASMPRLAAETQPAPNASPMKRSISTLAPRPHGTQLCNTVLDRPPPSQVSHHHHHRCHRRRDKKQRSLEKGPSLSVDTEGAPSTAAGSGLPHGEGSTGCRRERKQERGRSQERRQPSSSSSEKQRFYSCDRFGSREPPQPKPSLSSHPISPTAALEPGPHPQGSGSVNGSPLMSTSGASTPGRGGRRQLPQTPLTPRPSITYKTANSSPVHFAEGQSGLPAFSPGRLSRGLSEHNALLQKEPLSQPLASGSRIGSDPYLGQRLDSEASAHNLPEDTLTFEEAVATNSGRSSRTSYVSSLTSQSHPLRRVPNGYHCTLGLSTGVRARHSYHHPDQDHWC
T1 sequence (P54290 25-944 partner limits assumed): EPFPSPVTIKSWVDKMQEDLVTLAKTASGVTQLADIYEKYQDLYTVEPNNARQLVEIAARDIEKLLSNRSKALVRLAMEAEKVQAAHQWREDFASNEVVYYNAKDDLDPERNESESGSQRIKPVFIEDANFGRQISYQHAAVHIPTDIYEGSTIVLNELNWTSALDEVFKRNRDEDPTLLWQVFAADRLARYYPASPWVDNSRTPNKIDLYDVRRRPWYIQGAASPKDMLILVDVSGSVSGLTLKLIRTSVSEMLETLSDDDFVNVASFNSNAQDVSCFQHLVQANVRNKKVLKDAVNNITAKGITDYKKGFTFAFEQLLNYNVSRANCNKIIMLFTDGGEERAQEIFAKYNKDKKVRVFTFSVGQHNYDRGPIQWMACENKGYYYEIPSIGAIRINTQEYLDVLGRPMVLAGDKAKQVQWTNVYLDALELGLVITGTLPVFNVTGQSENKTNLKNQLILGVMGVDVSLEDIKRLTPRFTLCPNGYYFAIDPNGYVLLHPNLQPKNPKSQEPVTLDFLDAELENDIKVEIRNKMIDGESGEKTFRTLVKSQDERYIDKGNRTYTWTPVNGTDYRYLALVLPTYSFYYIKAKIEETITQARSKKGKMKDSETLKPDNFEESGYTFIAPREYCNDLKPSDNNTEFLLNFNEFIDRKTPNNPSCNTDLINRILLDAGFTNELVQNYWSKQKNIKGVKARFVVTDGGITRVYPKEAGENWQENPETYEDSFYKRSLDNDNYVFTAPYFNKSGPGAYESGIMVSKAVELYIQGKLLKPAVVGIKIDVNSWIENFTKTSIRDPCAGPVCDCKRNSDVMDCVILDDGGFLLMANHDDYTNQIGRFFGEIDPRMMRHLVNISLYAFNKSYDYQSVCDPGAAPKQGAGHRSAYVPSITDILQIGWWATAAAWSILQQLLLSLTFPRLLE
T1 sequence (P54290 945-1091 partner limits assumed): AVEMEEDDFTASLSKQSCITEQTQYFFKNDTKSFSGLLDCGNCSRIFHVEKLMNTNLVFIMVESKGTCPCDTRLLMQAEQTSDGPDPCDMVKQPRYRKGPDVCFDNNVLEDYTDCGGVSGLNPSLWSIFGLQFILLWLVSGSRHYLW
T1 sequence (P54283 whole entry partner): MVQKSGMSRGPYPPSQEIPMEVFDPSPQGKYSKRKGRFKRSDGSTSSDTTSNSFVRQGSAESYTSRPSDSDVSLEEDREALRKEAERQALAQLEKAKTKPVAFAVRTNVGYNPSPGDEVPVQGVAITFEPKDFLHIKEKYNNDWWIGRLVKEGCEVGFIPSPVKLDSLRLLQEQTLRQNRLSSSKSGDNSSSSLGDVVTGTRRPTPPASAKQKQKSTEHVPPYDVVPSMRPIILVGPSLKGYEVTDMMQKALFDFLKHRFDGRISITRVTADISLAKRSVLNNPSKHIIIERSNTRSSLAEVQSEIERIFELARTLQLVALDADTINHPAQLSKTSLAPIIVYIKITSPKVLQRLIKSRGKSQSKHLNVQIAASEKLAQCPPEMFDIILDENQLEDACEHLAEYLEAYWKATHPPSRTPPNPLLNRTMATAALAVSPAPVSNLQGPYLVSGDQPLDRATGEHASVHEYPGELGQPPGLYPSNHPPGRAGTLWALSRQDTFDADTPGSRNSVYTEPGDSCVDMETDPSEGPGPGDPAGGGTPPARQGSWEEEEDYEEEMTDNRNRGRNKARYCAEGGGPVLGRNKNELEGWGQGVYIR

IC50 [1] [nM]	IC50 [2] [nM]	SMILES
320	250	Cc1ccccc1C(CC(=O)N1CCC(CN2CCCCC2)(c2ccccc2)CC1)c1ccccc1C [Compound 46, 1-(4-phenyl-4-(piperidin-1-ylmethyl)piperidin-1-yl)-3,3-di-o-tolylpropan-1-one]
2300	1500	O=C(CC(c1ccccc1)c1ccccc1)N1CCC(C(c2ccccc2)N2CCCCC2)CC1 (stereo not shown) [Compound 50, 3,3-diphenyl-1-(4-(phenyl(piperidin-1-yl)methyl)piperidin-1-yl)propan-1-one]
630	450	O=C(COC(c1ccccc1)c1ccccc1)N1CCC(C(c2ccccc2)N2CCCCC2)CC1 (stereo not shown) [Compound 52]
2360	1320	CN1CCN(C(c2ccccc2)C2CCN(C(=O)CC(c3ccccc3)c3ccccc3)CC2)CC1 (stereo not shown) [Compound 54, 1-(4-((4-methylpiperazin-1-yl)(phenyl)methyl)piperidin-1-yl)-3,3-diphenylpropan-1-one]
880	420	CC1CN(C(c2ccccc2)C2CCN(C(=O)CC(c3ccccc3)c3ccccc3)CC2)CC(C)N1 (stereo not shown) [Compound 55, 1-(4-((3,5-dimethylpiperazin-1-yl)(phenyl)methyl)piperidin-1-yl)-3,3-diphenylpropan-1-one]
270	150	Cc1ccccc1C(CC(=O)N1CCC(C(c2ccccc2)N2CCN(C)CC2)CC1)c1ccccc1C (stereo not shown) [Compound 56, 1-(4-((4-methylpiperazin-1-yl)(phenyl)methyl)piperidin-1-yl)-3,3-di-o-tolylpropan-1-one]
930	440	Cc1ccccc1C(CC(=O)N1CCC(C(c2ccccc2)N2CC(C)NC(C)C2)CC1)c1ccccc1C (stereo not shown) [Compound 57, 1-(4-((3,5-dimethylpiperazin-1-yl)(phenyl)methyl)piperidin-1-yl)-3,3-di-o-tolylpropan-1-one]
5590		O=C(NC(c1cccc(F)c1)c1cccc(F)c1)N1CCC(CN2CCCCC2)CC1 [Compound 60]
2180	1230	CC(C)(C)N1CCN(CC2CCN(C(=O)CC(c3ccccc3)c3ccccc3)CC2)CC1 [Compound 66, 1-(4-((4-tert-butylpiperazin-1-yl)methyl)piperidin-1-yl)-3,3-diphenylpropan-1-one]
530	250	Cc1ccccc1C(CC(=O)N1CCC(CN2CCN(C(C)(C)C)CC2)CC1)c1ccccc1C [Compound 67, 1-(4-((4-tert-butylpiperazin-1-yl)methyl)piperidin-1-yl)-3,3-di-o-tolylpropan-1-one]
420	290	CC(C)(C)N1CCN(CC2CCN(C(=O)CCCCC(c3ccccc3)c3ccccc3)CC2)CC1 [Compound 74, 1-(4-((4-tert-butylpiperazin-1-yl)methyl)piperidin-1-yl)-6,6-diphenylhexan-1-one]
> 6450	> 3340	CC(C)(C)N1CCN(C(=O)C2CCN(C(=O)CC(c3ccccc3)c3ccccc3)CC2)CC1 [Compound 78, 1-(4-(4-tert-butylpiperazine-1-carbonyl)piperidin-1-yl)-3,3-diphenylpropan-1-one]
1480	940	Cc1ccccc1C(CC(=O)N1CCC(C(=O)N2CCN(C(C)(C)C)CC2)CC1)c1ccccc1C [Compound 79, 1-(4-(4-tert-butylpiperazine-1-carbonyl)piperidin-1-yl)-3,3-di-o-tolylpropan-1-one]
11600		CC(C)(C)N1CCN(C(=O)C2CCN(C(=O)NC(c3ccccc3)c3ccccc3)CC2)CC1 [Compound 80, N-benzhydryl-4-(4-tert-butylpiperazin-1-carbonyl)piperidine-1-carboxamide]
4400	2470	CC(C)(C)N1CCN(C(=O)C2CCN(C(=O)CC(c3ccc(F)cc3)c3ccc(F)cc3)CC2)CC1 [Compound 81, 1-(4-(4-tert-butylpiperazine-1-carbonyl)piperidin-1-yl)-3,3-bis(4-fluorophenyl)propan-1-one]
2590	15600	CC(C)(C)N1CCN(C(=O)C2CCN(C(=O)COC(c3ccc(F)cc3)c3ccc(F)cc3)CC2)CC1 [Compound 82, 2-(bis(4-fluorophenyl)methoxy)-1-(4-(4-tert-butylpiperazine-1-carbonyl)piperidin-1-yl)ethanone]
3000	1570	COc1ccccc1C(CC(=O)N1CCC(C(c2ccccc2)N2CC(C)NC(C)C2)CC1)c1ccccc1OC (stereo not shown) [Compound 83, 1-(4-((3,5-dimethylpiperazin-1-yl)(phenyl)methyl)piperidin-1-yl)-3,3-bis(2-methoxyphenyl)propan-1-one]
6910	2710	COc1ccccc1C(CC(=O)N1CCC(C(=O)N2CCN(C(C)(C)C)CC2)CC1)c1ccccc1OC [Compound 87, 1-(4-(4-tert-butylpiperazine-1-carbonyl)piperidin-1-yl)-3,3-bis(2-methoxyphenyl)propan-1-one]
1410	800	Cc1ccccc1C(CC(=O)N1CCC(C(c2ccccc2)N2CCN(C(C)(C)C)CC2)CC1)c1ccccc1C (stereo not shown) [Compound 101, 1-(4-((4-tert-butylpiperazin-1-yl)(phenyl)methyl)piperidin-1-yl)-3,3-di-o-tolylpropan-1-one]

SMILES	IC50 [1] [nM]	IC50 [2] [nM]
O=C(C[S+]([O-])C(c1ccccc1)c1ccccc1)N1CCC(CN2CCCCC2)CC1 (stereo not shown) [Compound 44, 2-(benzhydrylsulfinyl)-1-(4-(piperidin-1-ylmethyl)piperidin-1-yl)ethanone]	8400	4100
O=C(C[S+]([O-])C(c1ccccc1)c1ccccc1)N1CCC(CN2CCCCC2)(c2ccccc2)CC1 (stereo not shown) [Compound 48, 2-(benzhydrylsulfinyl)-1-(4-phenyl-4-(piperidin-1-ylmethyl)piperidin-1-yl)ethanone]	1250	930
